Measured values published in patent US4623662A, “Antiatherosclerotic ureas and thioureas” (American Cyanamid Company, priority 1985, dated 1986).
Like-named read-outs stand apart in the source and are kept apart here.

Assays:
[1] = target: T1, fatty acyl CoA: cholesterol acyl transferase (ACAT) (Rattus norvegicus, UniProt O70536); assay: Inhibition of fatty acyl CoA:cholesterol acyl transferase (ACAT), rat adrenal enzyme; assay type: biochemical
T1 construct: The supernatant, containing the microsomal fraction, served as the source of the cholesterol-esterifying enzyme; from tissue; host or cells: rat adrenals, supernatant of 1,000 x g centrifugation containing the microsomal fraction
T1 sequence (O70536 1-545): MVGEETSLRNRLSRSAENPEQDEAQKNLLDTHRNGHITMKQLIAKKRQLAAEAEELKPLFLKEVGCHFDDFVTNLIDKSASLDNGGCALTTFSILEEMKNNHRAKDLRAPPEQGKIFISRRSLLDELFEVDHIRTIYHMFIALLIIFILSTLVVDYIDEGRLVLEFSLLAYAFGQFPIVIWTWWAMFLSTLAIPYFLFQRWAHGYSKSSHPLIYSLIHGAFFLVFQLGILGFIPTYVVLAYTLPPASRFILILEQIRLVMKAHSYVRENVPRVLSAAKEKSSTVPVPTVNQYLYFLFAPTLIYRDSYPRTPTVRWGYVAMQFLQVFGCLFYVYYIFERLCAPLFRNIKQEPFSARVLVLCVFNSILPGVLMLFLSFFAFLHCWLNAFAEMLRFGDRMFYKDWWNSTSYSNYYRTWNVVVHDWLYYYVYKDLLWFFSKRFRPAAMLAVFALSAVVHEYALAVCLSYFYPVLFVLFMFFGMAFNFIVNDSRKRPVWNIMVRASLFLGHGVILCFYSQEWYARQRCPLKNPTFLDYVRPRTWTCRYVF
Method: The compounds of the present invention were assayed for two types of biological activity related to their potential use as antiatherosclerotic agents. Compounds were tested in vitro for the ability to inhibit the enzyme fatty acyl CoA: cholesterol acyl transferase (ACAT) and in vivo for serum hypolipidemic activity as meausred by the ability to inhibit lipid absorption in rats.
The compounds were tested for their ability to inhibit ACAT according to the following procedure: rat adrenals were homogenized in 0.2M monobasic potassium phosphate buffer, pH 7.4, and centrifuged at 1,000 times gravity for 15 minutes at 5° C. The supernatant, containing the microsomal fraction, served as the source of the cholesterol-esterifying enzyme, fatty acyl CoA:cholesterol acyl transferase (ACAT). A mixture comprising 50 parts of adrenal supernatant, 10 parts of bovine serum albumin (50 mg/ml), 3 parts of test compound (final concentration 5.2 μg/ml), and 500 parts of buffer was preincubated at 37° C. for 10 minutes. After treatment with 20 parts of oleoyl CoA (^14 C-0.4 μCi), the mixture was incubated at 37° C. for 10 minutes. A control mixture, omitting the test compound, was prepared and treated in the same manner. The lipids from the incubation mixture was extracted into an organic solvent and separated by thin-layer chromatography. The cholesteryl ester fraction was counted in a scintillation counter. This procedure is a modification of that described by Hashimoto, et al., Life Scie., 12 (Part II), 1-12 (1973).
Compounds which produced statistically significant inhibition of the ACAT enzyme are considered to be active.
In addition to the above described test and the results given in terms of percent inhibition, various compounds of this invention were tested by the same procedure at several concentrations. The results of this test are given in Table II in terms of IC50 (μM), that concentration which produced 50% inhibition of the ACAT enzyme.

cholesterol absorption = assay: Inhibition of cholesterol absorption in rats fed 1% cholesterol:0.5% cholic acid diet; assay type: in vivo, male Sprague-Dawley rats; settings: po, 336 h, rat, 2 weeks; for response vs control in vivo at 0.001 %: dose .001% of the diet; for response vs control in vivo at 0.003 %: dose .003% of the diet; for response vs control in vivo at 0.01 %: dose .01% of the diet; for response vs control in vivo at 0.03 %: dose .03% of the diet
Method: Inhibition of cholesterol absorption was determined by feeding male Sprague-Dawley rats, weighing 150-170 g, a 1% cholesterol:0.5% cholic acid diet for 2 weeks. The diet also contained compounds being tested at a dose of 0.001, 0.003, 0.01, or 0.03% of the diet. Control rats were fed the same diet without any compound. At the end of the test, the rats were sacrificed by decapitation. Blood was collected, centrifuged at […] for 10 minutes at 4° C.; and the serum was then analyzed for cholesterol and triglycerides enzymatically by the method of Trinder, P., Analyst, 77, 321 (1952) on a Centrifichem 400 analyzer. Livers were removed, a 0.4 g sample was taken from the center of the large lobe, and the sample was subjected to saponification using 25% saturated potassium hydroxide in ethanol. The resulting neutral sterols were extracted with petroleum ether and the extract analyzed for cholesterol. The effectiveness of the compound in inhibiting cholesterol absorption was measured by the lowering of either serum cholesterol or liver cholesterol relative the values for control rats.
Compounds which produced statistically significant inhibition of cholesterol absorption are considered to be active. Liver sterol (LS) and serum sterol (SS) values are expressed as a percentage of control values.

[2] = rat adrenal ACAT, final concentration 5.2 μg/ml, read-out: % Inhibition
[3] = read-out: LS (liver sterol), percentage of control values
[4] = read-out: SS (serum sterol), percentage of control values

## 1-[(4-Butylphenyl)methyl]-1-[6-[(methylsulfonyl)oxy]-hexyl]-3-[(2,4,5-trimethylphenyl)methyl]urea
[1]; rat adrenal ACAT, final concentration 5.2 μg/ml
  % Inhibition: 90.0%

## CC(C)(C)CCN(Cc1ccc(Cl)cc1)C(=O)Nc1ccc(F)cc1F [1-(3,3-Dimethylbutyl)-1-(4-chlorobenzyl)-3-(2,4-difluorophenyl)urea]
[1]
  inhibition at 5.2 µg/mL: 90%

## CC(C)(C)CCN(Cc1ccc(Cl)cc1)C(=O)Nc1cccc(C(F)(F)F)c1 [1-(3,3-Dimethylbutyl)-1-(4-chlorobenzyl)-3-(3-trifluoromethylphenyl)urea]
[1]
  inhibition at 5.2 µg/mL: 90%

## CCCCc1ccc(CN(CCC(C)(C)C)C(=O)Nc2cccc(C(F)(F)F)c2)cc1 [1-(3,3-Dimethylbutyl)-1-[4-(n-butyl)benzyl]-3-(3-trifluoromethylphenyl)urea]
[1]
  inhibition at 5.2 µg/mL: 90%

## Cc1ccc(CCN(Cc2ccc3c(c2)OCO3)C(=O)Nc2ccc(C)cc2C)cc1 [1-(3,4-Methylenedioxybenzyl)-1-[2-(4-methylphenyl)ethyl]-3-(2,4-dimethylphenyl)urea]
[1]; [2]
  inhibition at 5.2 µg/mL: 41.2%

## Cc1ccc(NC(=O)N(CCC(c2ccccc2)c2ccccc2)c2ccc3c(c2)OCO3)c(C)c1 [1-(3,4-Methylenedioxyphenyl)-1-(3,3-diphenylpropyl)-3-(2,4-dimethylphenyl)urea]
[1]; [2]
  inhibition at 5.2 µg/mL: 87.8%

## CCCCN(Cc1ccc(Br)cc1)C(=O)Nc1ccc(C)cc1C [1-(4-Bromobenzyl)-1-(n-butyl)-3-(2,4-dimethylphenyl)urea]
[1]; [2]
  inhibition at 5.2 µg/mL: 81%

## O=C(Nc1ccc(Cl)cc1C(F)(F)F)N(Cc1ccc(Cl)cc1)Cc1cccc2ccccc12 [1-(4-Chlorobenzyl)-1-(1-naphthylmethyl)-3-(2-trifluoromethyl-4-chlorophenyl)urea]
[1]; [2]
  inhibition at 5.2 µg/mL: 83%

## CCCCCOc1ccc(CN(Cc2ccc(CCCCC)cc2)C(=O)Nc2ccc(Cl)cc2C)cc1 [1-(4-n-Pentylbenzyl)-1-(4-n-pentyloxybenzyl)-3-(2-methyl-4-chlorophenyl)urea]
[1]; [2]
  inhibition at 5.2 µg/mL: 91%

## CCCCCCCN(Cc1ccc(CCC(C)CC)cc1)C(=O)Nc1ccc(F)cc1F (stereo not shown) [1-(n-Heptyl)-1-[4-(3-methylpentyl)benzyl]-3-(2,4-difluorophenyl)urea]
Cholesterol absorption; [3]
  response vs control in vivo at 0.001 %: 89%
Cholesterol absorption; [4]
  response vs control in vivo at 0.001 %: 72%

## CCCCCCCN(Cc1ccc(CCC(C)CC)cc1)C(=O)Nc1c(C)cc(Cl)cc1C (stereo not shown) [1-(n-Heptyl)-1-[4-(3-methylpentyl)benzyl]-3-(4-chloro-2,6-dimethylphenyl)urea]
Cholesterol absorption; [3]
  response vs control in vivo at 0.003 %: 45%
Cholesterol absorption; [4]
  response vs control in vivo at 0.003 %: 38%

## CCCCCCCN(Cc1ccc(CCCCSCC)cc1)C(=O)Nc1c(C)cc(Cl)cc1C [1-(n-Heptyl)-1-[4-(4-ethylthiobutyl)benzyl]-3-(4-chloro-2,6-dimethylphenyl)urea]
Cholesterol absorption; [3]
  response vs control in vivo at 0.003 %: 63%
Cholesterol absorption; [4]
  response vs control in vivo at 0.003 %: 57%

## CCCCCCCN(Cc1ccc(CCCCSC(C)C)cc1)C(=O)Nc1c(C)cc(Cl)cc1C [1-(n-Heptyl)-1-[4-(4-isopropylthiobutyl)benzyl]-3-(4-chloro-2,6-dimethylphenyl)urea]
Cholesterol absorption; [3]
  response vs control in vivo at 0.01 %: 45%
Cholesterol absorption; [4]
  response vs control in vivo at 0.01 %: 49%

## CCCCCCCN(Cc1ccc(CC2CCC2)cc1)C(=O)Nc1c(F)cc(F)cc1F [1-(n-Heptyl)-1-[4-(cyclobutylmethyl)benzyl]-3-(2,4,6-trifluorophenyl)urea]
Cholesterol absorption; [3]
  response vs control in vivo at 0.001 %: 66%
Cholesterol absorption; [4]
  response vs control in vivo at 0.001 %: 62%

## CCCCCCCN(Cc1ccc(CC2CCC2)cc1)C(=O)Nc1c(C)cc(Cl)cc1C [1-(n-Heptyl)-1-[4-(cyclobutylmethyl)benzyl]-3-(4-chloro-2,6-dimethylphenyl)urea]
Cholesterol absorption; [3]
  response vs control in vivo at 0.001 %: 69%
Cholesterol absorption; [4]
  response vs control in vivo at 0.001 %: 64%

## CCCCCCCN(Cc1ccc(C2CCCC2)cc1)C(=O)Nc1c(F)cc(F)cc1F [1-(n-Heptyl)-1-[4-(cyclopentyl)benzyl]-3-(2,4,6-trifluorophenyl)urea]
Cholesterol absorption; [3]
  response vs control in vivo at 0.001 %: 58%
Cholesterol absorption; [4]
  response vs control in vivo at 0.001 %: 69%

## CCCCCCCN(Cc1ccc(C2CCCC2)cc1)C(=O)Nc1ccc(F)cc1F [1-(n-Heptyl)-1-[4-(cyclopentyl)benzyl]-3-(2,4-difluorophenyl)urea]
Cholesterol absorption; [3]
  response vs control in vivo at 0.003 %: 82%
Cholesterol absorption; [4]
  response vs control in vivo at 0.003 %: 80%

## CCCCCCCN(Cc1ccc(C2CCCC2)cc1)C(=O)Nc1c(Cl)cc(Cl)cc1Cl [1-(n-Heptyl)-1-[4-(cyclopentyl)benzyl]-3-(4-chloro-2,6-dichlorophenyl)urea]
Cholesterol absorption; [3]
  response vs control in vivo at 0.003 %: 36%
Cholesterol absorption; [4]
  response vs control in vivo at 0.003 %: 35%

## CCCCCCCN(Cc1ccc(CC2CCCC2)cc1)C(=O)Nc1c(F)cc(F)cc1F [1-(n-Heptyl)-1-[4-(cyclopentylmethyl)benzyl]-3-(2,4,6-trifluorophenyl)urea]
Cholesterol absorption; [3]
  response vs control in vivo at 0.003 %: 50%
Cholesterol absorption; [4]
  response vs control in vivo at 0.003 %: 62%

## CCCCCCCN(Cc1ccc(CC2CCCC2)cc1)C(=O)Nc1c(C)cc(Cl)cc1C [1-(n-Heptyl)-1-[4-(cyclopentylmethyl)benzyl]-3-(4-chloro-2,6-dimethylphenyl)urea]
Cholesterol absorption; [3]
  response vs control in vivo at 0.003 %: 53%
Cholesterol absorption; [4]
  response vs control in vivo at 0.003 %: 45%

## CCCCCCCN(Cc1ccc(CCCC(C)C)cc1)C(=O)Nc1c(F)cc(F)cc1F [1-(n-Heptyl)-1-[4-(isohexyl)benzyl]-3-(2,4,6-trifluorophenyl)urea]
Cholesterol absorption; [3]
  response vs control in vivo at 0.001 %: 78%
Cholesterol absorption; [4]
  response vs control in vivo at 0.001 %: 77%

## CCCCCCCN(Cc1ccc(CCCC(C)C)cc1)C(=O)Nc1ccc(F)cc1F [1-(n-Heptyl)-1-[4-(isohexyl)benzyl]-3-(2,4-difluorophenyl)urea]
Cholesterol absorption; [3]
  response vs control in vivo at 0.003 %: 53%
Cholesterol absorption; [4]
  response vs control in vivo at 0.003 %: 45%

## CCCCCCCN(Cc1ccc(CCCC(C)C)cc1)C(=O)Nc1c(C)cc(Cl)cc1C [1-(n-Heptyl)-1-[4-(isohexyl)benzyl]-3-(4-chloro-2,6-dimethylphenyl)urea]
Cholesterol absorption; [3]
  response vs control in vivo at 0.001 %: 73%
Cholesterol absorption; [4]
  response vs control in vivo at 0.001 %: 64%

## CCCCCCCN(Cc1ccc(OCCC(C)C)cc1)C(=O)Nc1ccc(F)cc1F [1-(n-Heptyl)-1-[4-(isopentyloxy)benzyl]-3-(2,4-difluorophenyl)urea]
Cholesterol absorption; [3]
  response vs control in vivo at 0.001 %: 61%
Cholesterol absorption; [4]
  response vs control in vivo at 0.001 %: 69%

## CCCCCCCN(Cc1ccc(OCCC(C)C)cc1)C(=O)Nc1c(C)cc(Cl)cc1C [1-(n-Heptyl)-1-[4-(isopentyloxy)benzyl]-3-(4-chloro-2,6-dimethylphenyl)urea]
Cholesterol absorption; [3]
  response vs control in vivo at 0.001 %: 23%
Cholesterol absorption; [4]
  response vs control in vivo at 0.001 %: 25%

## CCCCCCCN(Cc1ccc(CCCC)cc1)C(=O)Nc1ccc(C(F)(F)F)cc1 [1-(n-Heptyl)-1-[4-(n-butyl)benzyl]-3-(4-trifluoromethylphenyl)urea]
Cholesterol absorption; [3]
  response vs control in vivo at 0.03 %: 88%
Cholesterol absorption; [4]
  response vs control in vivo at 0.03 %: 79%
